Results reported in ChEMBL document CHEMBL5338708, “Bis-chalcone polyphenols with potential preventive and therapeutic effects on PD: Design, synthesis and in vitro disaggregation activity against α-synuclein oligomers and fibrils” (Eur J Med Chem, 2022).

Legend:
[1] = Apparent permeability across apical to basolateral side in MDCKII-MDR1 cells at 10 uM by LC-MS/MS analysis; type: ADME, cell-based, Canis lupus familiaris; conditions: dog, MDCK-MDR1
[2] = Apparent permeability across basolateral to apical side in MDCKII-MDR1 cells at 10 uM by LC-MS/MS analysis; type: ADME, cell-based, Canis lupus familiaris; conditions: dog, MDCK-MDR1
[3] = target: Alpha-synuclein (Homo sapiens, UniProt P37840); assay: Inhibition of recombinant human Alpha-synuclein aggregation expressed in Escherichia coli incubated for 72 hrs by ThT fluorescence assay
[4] = Efflux ratio of apparent permeability from basolateral to apical side over apical to basolateral side in […] cells at 10 uM by LC-MS/MS analysis; type: ADME, cell-based, Canis lupus familiaris; conditions: dog, MDCK-MDR1

SMILES	Papp A→B at 10 µM [1] [×10⁻⁶ cm/s]	Papp B→A at 10 µM [2] [×10⁻⁶ cm/s]	efflux ratio at 10 µM [4]	IC50 [3] [µM]
O=C(/C=C/c1ccc(/C=C/C(=O)c2ccc(O)c(F)c2)cc1)c1ccc(O)c(F)c1	11.4	95.6	–	–
COc1cc(/C=C/C(=O)c2ccc(O)c(O)c2)c(OC)cc1/C=C/C(=O)c1ccc(O)c(O)c1	13.5	96	–	–
O=C(O[C@@H]1Cc2c(O)cc(O)cc2O[C@H]1c1cc(O)c(O)c(O)c1)c1cc(O)c(O)c(O)c1 [GALLOCATECHIN GALLATE]	–	–	–	1.06
CC(C)NCC(O)COc1cccc2ccccc12 (configuration not stated) [PROPRANOLOL]	36.5	97	2.66	–

Second part, led by results:

Papp A→B at 10 µM [1] [×10⁻⁶ cm/s]	Papp B→A at 10 µM [2] [×10⁻⁶ cm/s]	efflux ratio at 10 µM [4]	SMILES	IC50 [3] [µM]
16.2	74.7	–	O=C(/C=C/c1ccc(/C=C/C(=O)c2ccc(O)c(O)c2)cc1)c1ccc(O)c(O)c1	–
7.71	93.2	–	COc1cc(/C=C/C(=O)c2cc(O)cc(O)c2)c(OC)cc1/C=C/C(=O)c1cc(O)cc(O)c1	–
